Measurements taken from patent US8877746B2, “Compositions for delivery of insoluble agents” (Cardioklne, Inc, priority 2009, dated 2014).
Converted amounts (≈) assume the structure as drawn.

How the values were obtained:
[1] = Solubility of lixivaptan in water; assay type: physicochemical
Procedure: Lixivaptan is very poorly soluble in water (less than 20 ng/mL). Salt formation (a frequently used approach to increase aqueous solubility) was not possible. The bioavailability of lixivaptan can be extremely low in conventional dosage forms (i.e., when blended with excipients and compressed into tablets or filled into capsules).

[2] = Solubility in 1.5% SDS at 25° C.; assay type: physicochemical

Structure (SMILES): Cc1ccc(F)cc1C(=O)Nc1ccc(C(=O)N2Cc3cccn3Cc3ccccc32)c(Cl)c1 [Lixivaptan, 5-fluoro-2-methyl-N-[4-(5H-pyrrolo[2,1-c]-[1,4]-benzodiazepin-10(11H)-ylcarbonyl)-3-chlorophenyl]benzamide]
- solubility [1]: < 0.02 µg/mL
- Solubility (mg/mL in 1.5% SDS, 25° C.) 1 h ([2]; 1 h): 0.019 mg/mL (≈ 40.1 µM)
- solubility at 24 h ([2]; aqueous with cosolvent or surfactant or cyclodextrin, 24 h, read-out: Solubility (mg/mL in 1.5% SDS, 25° C.) 24 h): 0.024 mg/mL (≈ 50.6 µM)
